# Source: patent publication US11292781B2, “Pyrimidine tricyclic enone derivatives for inhibition of ROR-gamma and other uses” (REATA PHARMACEUTICALS, INC., priority 2016, dated 2022)
# Test system: Nrf2 transcription factor (GST ARE luciferase reporter in AREc32 cells)
# Assay: AREc32 luciferase reporter assay
# Assay type: cell-based, human
# Details: EC2×: concentration required to increase GST ARE luciferase reporter activity by 2-fold, 19 hours
# From the text: A. AREc32 Luciferase Reporter Assay The AREc32 luciferase reporter assay allows for quantitative assessment of the endogenous activity of the Nrf2 transcription factor in cultured mammalian cells. AREc32 cells are derived from MCF-7 human breast carcinoma cells that were stably transfected with a reporter construct that contains the firefly luciferase gene located downstream of eight copies of the rat GSTA2 antioxidant response element (ARE) sequence (Wang et al., 2006; CXR Biosciences). Active NRF2 binds to the ARE sequences and increases expression of the firefly luciferase gene. […] Luciferase activity was determined using the ONE-Glo Luciferase assay (Promega). The luminescence signal was measured on a BMG Pherastar microplate reader. The mean luminescence value from test compound-treated wells was normalized to that from DMSO-treated wells and was represented as fold-induction. Data were analyzed using GraphPad Prism version 6.00 for Windows, GraphPad Software, La Jolla Calif. USA. A non-linear regression curve with log (agonist) vs. response using a variable slope was used to fit the data. […] EC2× values were interpolated from the curve.
row,SMILES,HRF2 ARE 2×
1,COc1nc(-c2ccncc2C)nc2c1CC[C@@H]1[C@@H](C)C(=O)C(C#N)=C[C@@]21C [T4],449 nM
2,C[C@H]1C(=O)C(C#N)=C[C@@]2(C)c3nc(N)nc(-c4ccccc4)c3CC[C@H]12 [T34],469 nM
3,Cc1cc(-c2nc(-c3ccc(F)cc3)c3c(n2)[C@]2(C)CC(C#N)C(=O)[C@H](C)[C@H]2CC3)ccn1 (stereo partly shown) [T187],>2000 nM
4,CCC[C@H]1C(=O)C(C#N)=C[C@@]2(C)c3nc(-c4ccnc(C5CC5)c4)nc(-c4ccccc4F)c3CC[C@H]12 [T146],447 nM
5,CC1(C)C(=O)C(C#N)=C[C@@]2(C)c3nc(-c4ccnc5ccccc45)nc(-c4ccccc4F)c3CC[C@H]12 [T118],395 nM
6,CC(C)c1ccc(-c2nc(-c3ccnc4ccccc34)nc3c2CC[C@@H]2[C@@H](C)C(=O)C(C#N)=C[C@@]32C)cc1 [T161],158 nM
7,COC(=O)[C@@]1(C)C(=O)C=C[C@@]2(C)c3nc(-c4ccncc4)nc(OC)c3CC[C@H]12 [T135],>2000 nM
8,COc1ccc(-c2nc(-c3ccncc3)nc3c2CC[C@@H]2[C@@H](C)C(=O)C(C#N)=C[C@@]32C)cc1 [T30],136 nM
9,Cc1cc(-c2nc(-c3ccccc3)c3c(n2)[C@]2(C)C=C(C#N)C(=O)[C@H](C)[C@H]2CCC3)ccn1 [T182],892 nM
10,C[C@H]1C(=O)[C@@]2(C#N)O[C@H]2[C@@]2(C)c3nc(-c4ccnc5cc(F)ccc45)nc(-c4ccccc4F)c3CC[C@H]12 [T129],697 nM
11,C[C@H]1C(=O)C(C#N)=C[C@@]2(C)c3nc(-c4ccnc5ccccc45)nc(-c4ccccc4F)c3C[C@H]12 [T170],1222 nM
12,Cc1cc(-c2nc(-c3ccc(F)cc3)c3c(n2)[C@]2(C)C=C(C#N)C(=O)[C@H](C)[C@H]2CC3)ccn1 [T50],256 nM
13,C[C@H]1C(=O)C(C#N)=C[C@@]2(C)c3nc(-c4ccnc5ccccc45)nc(-c4ccccc4F)c3CC[C@H]12 [T37],351 nM
14,C[C@H]1C(=O)C(C#N)=C[C@@]2(C)c3nc(N4CCN(C)CC4)nc(-c4ccccc4F)c3CC[C@H]12 [T91],552 nM
15,Cc1cc(-c2nc(-c3ccccc3F)c3c(n2)[C@]2(C)C=C(C#N)C(=O)[C@H](C)[C@H]2CC3)ccn1 [T51],364 nM
16,COc1nc(-c2cccnc2)nc2c1CC[C@@H]1[C@@H](C)C(=O)C(C#N)=C[C@@]21C [T7],388 nM
17,C[C@H]1C(=O)C(C#N)=C[C@@]2(C)c3nc(-c4ccnc(CCC(N)=O)c4)nc(-c4ccccc4F)c3CC[C@H]12 [T177],491 nM
18,Cc1ccc(S(=O)(=O)Oc2nc(-c3ccncc3)nc3c2CC[C@@H]2[C@@H](C)C(=O)C(C#N)=C[C@@]32C)cc1 [T18],381 nM
19,C[C@H]1C(=O)C(C(N)=O)=C[C@@]2(C)c3nc(-c4ccncc4)nc(-c4ccccc4)c3CC[C@H]12 [T16],1000 nM
20,CCC[C@@]12C=C(C#N)C(=O)[C@H](C)[C@H]1CCc1c(-c3ccccc3F)nc(-c3ccnc(C4CC4)c3)nc12 [T169],540 nM
21,COc1nc(OC)c2c(n1)[C@]1(C)C=C(C#N)C(=O)[C@H](C)[C@H]1CC2 [T1],487 nM

row,SMILES,HRF2 ARE 2×
1,C[C@H]1C(=O)C(C#N)=C[C@@]2(C)c3nc(-c4ccnc(C5CC5)c4)nc(-c4ccccc4F)c3C[C@H]12 [T174],>2000 nM
2,CC[C@@]1(C)C(=O)C(C#N)=C[C@@]2(C)c3nc(-c4ccnc(C5CC5)c4)nc(-c4ccccc4F)c3CC[C@H]12 [T181],518 nM
3,C[C@H]1C(=O)C(C#N)=C[C@@]2(C)c3nc(-c4ccccc4F)nc(-c4ccccc4F)c3CC[C@H]12 [T81],705 nM
4,C[C@H]1C(=O)C(C#N)=C[C@@]2(C)c3nc(-c4cn(C)c5ncccc45)nc(-c4ccccc4F)c3CC[C@H]12 [T72],374 nM
5,C=CC[C@H]1C(=O)C(C#N)=C[C@@]2(C)c3nc(-c4ccnc(C5CC5)c4)nc(-c4ccccc4F)c3CC[C@H]12 [T145],337 nM
6,COc1cc(-c2nc(OC)c3c(n2)[C@]2(C)C=C(C#N)C(=O)[C@H](C)[C@H]2CC3)ccn1 [T2],247 nM
7,C[C@H]1C(=O)C(C#N)=C[C@@]2(C)c3nc(N4CCOCC4)nc(-c4ccccc4F)c3CC[C@H]12 [T92],491 nM
8,CC1(C)C(=O)[C@@]2(C#N)O[C@H]2[C@@]2(C)c3nc(-c4ccnc5ccccc45)nc(-c4ccccc4F)c3CC[C@H]12 [T133],1199 nM
9,CC1=C2CCc3c(-c4ccccc4F)nc(-c4ccnc5c(F)cccc45)nc3[C@]2(C)C=C(C#N)C1=O [T128],1385 nM
10,C[C@H]1C(=O)C(C#N)=C[C@@]2(C)c3nc(-c4ccncc4)nc(-c4ccc(Cl)cc4)c3CC[C@H]12 [T28],141 nM
11,Cc1cnccc1-c1nc(-c2ccccc2F)c2c(n1)[C@]1(C)C=C(C#N)C(=O)[C@H](C)[C@H]1CC2 [T56],193 nM
12,C[C@H]1C(=O)[C@@]2(C#N)O[C@H]2[C@@]2(C)c3nc(-c4ccnc(C5CC5)c4)nc(-c4ccccc4F)c3CC[C@H]12 [T130],692 nM
13,C[C@H]1C(=O)C(C#N)=C[C@@]2(C)c3nc(-c4ccncc4)nc(-c4cccnc4)c3CC[C@H]12 [T25],449 nM
14,C[C@H]1C(=O)C(C#N)=C[C@@]2(C)c3nc(-c4ccncc4)nc(-c4ccc(C(F)(F)F)cc4)c3CC[C@H]12 [T24],171 nM
15,C[C@H]1C(=O)C(C#N)=C[C@@]2(C)c3nc(-c4ccncc4)nc(-c4cccc(C(F)(F)F)c4)c3CC[C@H]12 [T26],267 nM
16,C[C@H]1C(=O)C(C#N)=C[C@@]2(C)c3nc(-c4ccnc5ccccc45)nc(-c4ccc(-c5ccccc5)cc4)c3CC[C@H]12 [T163],312 nM
17,C[C@H]1C(=O)C(C#N)=C[C@@]2(C)c3nc(-c4ccnc(CO)c4)nc(-c4ccccc4F)c3CC[C@H]12 [T82],480 nM
18,COc1nc(-c2ccnc(F)c2)nc2c1CC[C@@H]1[C@@H](C)C(=O)C(C#N)=C[C@@]21C [T6],341 nM
19,C[C@H]1C(=O)C(C#N)=C[C@@]2(C)c3ncnc(-c4ccccc4)c3CC[C@H]12 [T22],90 nM
20,Cc1ccc(-c2nc(-c3ccccc3F)c3c(n2)[C@]2(C)C=C(C#N)C(=O)[C@H](C)[C@H]2CC3)cn1 [T88],177 nM
21,C[C@H]1C(=O)C(C#N)=C[C@@]2(c3ccccc3)c3nc(-c4ccnc(C5CC5)c4)nc(-c4ccccc4F)c3CC[C@H]12 [T147],>2000 nM

row,SMILES,HRF2 ARE 2×
1,C[C@H]1C(=O)C(C#N)=C[C@@]2(C)c3nc(-c4ccncc4)nc(-c4ccc(Cl)c(Cl)c4)c3CC[C@H]12 [T31],186 nM
2,CCC[C@H]1C(=O)C(C#N)=C[C@@]2(C)c3nc(-c4ccnc5ccccc45)nc(-c4ccccc4F)c3CC[C@H]12 [T158],315 nM
3,C[C@H]1C(=O)C(C#N)=C[C@@]2(C)c3nc(-c4ccncc4)nc(-c4ccccc4)c3CC[C@H]12 [T14],281 nM
4,C[C@H]1C(=O)C(C#N)=C[C@@]2(C)c3nc(-c4ccncc4)nc(-c4ccncc4)c3CC[C@H]12 [T29],484 nM
5,C[C@H]1C(=O)C(C#N)=C[C@@]2(C)c3nc(-c4ccc5ncccc5c4)nc(-c4ccccc4F)c3CC[C@H]12 [T60],380 nM
6,C[C@H]1C(=O)C(C#N)=C[C@@]2(C)c3nc(-c4ccc(C(F)(F)F)cc4)nc(-c4ccccc4)c3CC[C@H]12 [T20],608 nM
7,C[C@H]1C(=O)[C@@]2(C#N)O[C@H]2[C@@]2(C)c3nc(-c4ccncc4)nc(-c4ccccc4)c3CC[C@H]12 [T15],738 nM
8,CC(=O)N1CCN(c2nc(-c3ccccc3F)c3c(n2)[C@]2(C)C=C(C#N)C(=O)[C@H](C)[C@H]2CC3)CC1 [T139],222 nM
9,C[C@H]1C(=O)C(C#N)=C[C@@]2(C)c3nc(NC(=O)C4CCCCC4)nc(-c4ccccc4)c3CC[C@H]12 [T35],575 nM
10,C[C@H]1C(=O)C(C#N)=C[C@@]2(C)c3nc(-c4ccnc(CF)c4)nc(-c4ccccc4F)c3CC[C@H]12 [T83],484 nM
11,C[C@H]1C(=O)C(C#N)=C[C@@]2(C)c3nc(-c4ccccc4)nc(-c4ccccc4)c3CC[C@H]12 [T19],741 nM
12,C[C@H]1C(=O)C(C#N)=C[C@@]2(C)c3nc(-c4ccncc4)nc(Cc4ccccc4)c3CC[C@H]12 [T36],484 nM
13,Cc1ccc(-c2nc(-c3ccncc3)nc3c2CC[C@@H]2[C@@H](C)C(=O)C(C#N)=C[C@@]32C)cc1 [T27],181 nM
14,C[C@H]1C(=O)C(C#N)=C[C@@]2(C)c3nc(-c4cccc5ncccc45)nc(-c4ccccc4F)c3C[C@H]12 [T173],>2000 nM
15,COc1nc(-c2ccnc(C)c2)nc2c1CC[C@@H]1[C@@H](C)C(=O)C(C#N)=C[C@@]21C [T3],232 nM
16,C[C@H]1C(O)=C(C#N)C[C@@]2(C)c3nc(-c4ccncc4)nc(-c4ccccc4)c3CC[C@H]12 [T13],>2000 nM
17,COc1nc(-c2ccncc2)nc2c1CC[C@@H]1[C@@H](C)C(=O)C=C[C@@]21C [T134],3137 nM
18,C[C@H]1C(=O)C(C#N)=C[C@@]2(C)c3nc(-c4ccncc4)nc(-c4ccc(CO)cc4)c3CC[C@H]12 [T21],443 nM
19,C[C@H]1C(=O)C(C#N)=C[C@@]2(C)c3nc(-c4ccnc(CF)c4)nc(-c4ccccc4F)c3C[C@H]12 [T171],1474 nM
